{
  "source": "patent US20230022575A1",
  "about": "“BACTERIAL CONJUGATIVE SYSTEM AND THERAPEUTIC USES THEREOF” (SOCIÉTÉ DE COMMERCIALISATION DES PRODUITS DE LA RECHERCHE …, priority 2018, published 2023)",
  "key": {"[1]": {"system": "KN01", "assay": "Minimal inhibitory concentration (MIC) of EcN strains", "format": "cell-based, Escherichia coli Nissle 1917", "settings": "Escherichia coli, read-out: Minimal inhibitory concentration (MIC)"}, "[2]": {"system": "EcN", "assay": "Minimal inhibitory concentration (MIC) of EcN strains", "format": "cell-based, Escherichia coli Nissle 1917", "settings": "Escherichia coli; strain EcN"}, "[3]": {"system": "KN02", "assay": "Minimal inhibitory concentration (MIC) of EcN strains", "format": "cell-based, Escherichia coli Nissle 1917", "settings": "Escherichia coli, read-out: Minimal inhibitory concentration (MIC)"}, "[4]": {"system": "endogenous Enterobacteriaceae", "assay": "Streptomycin treatment and EcN (KN01) colonization of the murine gut", "format": "in vivo, mouse", "settings": "1 g/L of Sm in drinking water, mice", "protocol": "FIGS. 3.A to G. Streptomycin (Sm) treatment improves mouse gut colonization by Escherichia coli Nissle 1917 (EcN). The ability of different Sm concentrations to deplete endogenous Enterobacteriaceae (white area) and to promote EcN colonization (gray area) was evaluated by quantifying CFU in feces from mice treated with 0 mg/L (FIG. 3.A), 50 mg/L (FIG. 3.B), 100 mg/L (FIG. 3.C), 250 mg/L (FIG. 3.D), 450 mg/L (FIG. 3.E) and 1000 mg/L (FIG. 3.F) in drinking water starting at day −2. The colonization levels of KN01 in several sections of the intestinal tract of untreated (0) and streptomycin-treated ( ) mice was evaluated (FIG. 3.G). […]\nMouse model. All mice-related protocols were designed in compliance with our institution Animal Care Comity Guidelines and were strictly evaluated to avoid animal suffering. […] Animal weight and health was monitored daily throughout each experiment. […] For Sm treated mice groups, Sm working concentration was first evaluated to maximize Enterobacteriaceae clearance and EcN colonization (Kotula et al., 2014). […] Bacterial load was monitored in feces sampling at specified time points. […] Animals were then dissected to reveal the colonization pattern and gut bacterial content was evaluated by CFU. […]\nFeces and tissues processing. […] CFUs/mg sample were calculated as a function of the sample measured weight. […]"}},
  "data": [
    {"smiles": "CC1(C)S[C@@H]2[C@H](NC(=O)[C@H](N)c3ccccc3)C(=O)N2[C@H]1C(=O)O", "note": "[Ap, ampicillin]", "values": [
      {"measurement": "MIC", "setting": "[1]", "result": "< 25", "unit": "mg/L"},
      {"measurement": "MIC", "setting": "[2]", "result": "< 25", "unit": "mg/L"},
      {"measurement": "MIC", "setting": "[3]", "result": "< 25", "unit": "mg/L"}
    ]},
    {"smiles": "O=C(N[C@H](CO)[C@H](O)c1ccc([N+](=O)[O-])cc1)C(Cl)Cl", "note": "[Cm, chloramphenicol]", "values": [
      {"measurement": "MIC", "setting": "[1]", "result": "< 8", "unit": "mg/L"},
      {"measurement": "MIC", "setting": "[2]", "result": "< 8", "unit": "mg/L"},
      {"measurement": "MIC", "setting": "[3]", "result": 264, "unit": "mg/L"}
    ]},
    {"smiles": "[H]/N=C(/N)N[C@H]1[C@H](O)[C@@H](O)[C@H](O[C@@H]2O[C@@H](C)[C@](O)(C=O)[C@H]2O[C@@H]2O[C@@H](CO)[C@H](O)[C@@H](O)[C@@H]2NC)[C@@H](N/C(N)=N\\[H])[C@@H]1O", "note": "[Sm, streptomycin]", "values": [
      {"measurement": "MIC", "setting": "[1]", "result": 800, "unit": "mg/L"},
      {"measurement": "Enterobacteriaceae clearance and KN01 colonization", "setting": "[4]", "result": "cleared Enterobactericeae while allowing stable colonization of the KN01 strain"},
      {"measurement": "MIC", "setting": "[2]", "result": 25, "unit": "mg/L"},
      {"measurement": "MIC", "setting": "[3]", "result": "> 1600", "unit": "mg/L"}
    ]},
    {"smiles": "CN[C@@H]1[C@H](O)[C@H](NC)[C@H]2O[C@@]3(O)C(=O)C[C@@H](C)O[C@H]3O[C@@H]2[C@H]1O", "note": "[Sp, spectinomycin]", "values": [
      {"measurement": "MIC", "setting": "[1]", "result": 3000, "unit": "mg/L"},
      {"measurement": "MIC", "setting": "[2]", "result": 50, "unit": "mg/L"}
    ]}
  ]
}
